This is an account of results in ChEMBL document CHEMBL1201862, “PubChem BioAssay data set” (2004).

Calls of active or inactive are those of the source.

Assay [1] is described as follows: cells. To be noted: A549.
Assay [2] deals with T1, Oxysterols receptor LXR-beta (Homo sapiens, UniProt P55055).
T1 sequence (P55055 whole entry): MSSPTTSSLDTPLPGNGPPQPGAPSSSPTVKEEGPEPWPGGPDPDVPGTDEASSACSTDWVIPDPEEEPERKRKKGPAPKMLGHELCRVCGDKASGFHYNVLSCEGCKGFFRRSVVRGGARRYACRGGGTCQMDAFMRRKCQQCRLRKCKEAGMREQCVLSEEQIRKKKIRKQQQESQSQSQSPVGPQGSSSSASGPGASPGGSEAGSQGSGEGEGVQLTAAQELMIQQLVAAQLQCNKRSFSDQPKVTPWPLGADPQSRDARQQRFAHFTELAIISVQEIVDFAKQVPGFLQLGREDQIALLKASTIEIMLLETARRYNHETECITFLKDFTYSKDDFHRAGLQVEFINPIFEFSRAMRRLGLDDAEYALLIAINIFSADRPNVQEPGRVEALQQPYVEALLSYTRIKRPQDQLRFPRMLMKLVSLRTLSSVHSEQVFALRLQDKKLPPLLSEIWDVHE
It is filed as functional, cell-based.

In assay [3] the target is T2, High affinity choline transporter 1 (Homo sapiens, UniProt Q9GZV3).
T2 sequence (Q9GZV3 whole entry): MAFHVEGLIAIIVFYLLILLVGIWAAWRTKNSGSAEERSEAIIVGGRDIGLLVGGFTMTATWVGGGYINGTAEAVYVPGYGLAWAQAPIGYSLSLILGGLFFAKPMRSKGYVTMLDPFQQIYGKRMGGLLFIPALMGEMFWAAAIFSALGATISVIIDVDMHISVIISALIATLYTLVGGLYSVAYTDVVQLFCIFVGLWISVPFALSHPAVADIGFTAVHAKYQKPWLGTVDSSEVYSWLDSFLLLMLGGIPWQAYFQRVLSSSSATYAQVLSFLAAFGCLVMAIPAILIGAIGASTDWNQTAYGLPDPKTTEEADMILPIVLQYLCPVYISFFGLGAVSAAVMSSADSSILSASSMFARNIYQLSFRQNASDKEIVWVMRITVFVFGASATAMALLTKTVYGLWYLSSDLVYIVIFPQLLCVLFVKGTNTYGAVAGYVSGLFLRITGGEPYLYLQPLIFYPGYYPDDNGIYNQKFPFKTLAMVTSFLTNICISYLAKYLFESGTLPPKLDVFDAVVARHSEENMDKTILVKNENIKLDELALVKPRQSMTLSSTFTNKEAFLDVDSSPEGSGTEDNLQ
The experiment in a line: CHT inhibitors, dose response, cell-based, 5-point CRC, membrane potential dye (AID 504840). It is filed as functional.

The target of assay [4] is T3, Heat shock factor protein 1 (Mus musculus, UniProt P38532).
T3 sequence (P38532 whole entry): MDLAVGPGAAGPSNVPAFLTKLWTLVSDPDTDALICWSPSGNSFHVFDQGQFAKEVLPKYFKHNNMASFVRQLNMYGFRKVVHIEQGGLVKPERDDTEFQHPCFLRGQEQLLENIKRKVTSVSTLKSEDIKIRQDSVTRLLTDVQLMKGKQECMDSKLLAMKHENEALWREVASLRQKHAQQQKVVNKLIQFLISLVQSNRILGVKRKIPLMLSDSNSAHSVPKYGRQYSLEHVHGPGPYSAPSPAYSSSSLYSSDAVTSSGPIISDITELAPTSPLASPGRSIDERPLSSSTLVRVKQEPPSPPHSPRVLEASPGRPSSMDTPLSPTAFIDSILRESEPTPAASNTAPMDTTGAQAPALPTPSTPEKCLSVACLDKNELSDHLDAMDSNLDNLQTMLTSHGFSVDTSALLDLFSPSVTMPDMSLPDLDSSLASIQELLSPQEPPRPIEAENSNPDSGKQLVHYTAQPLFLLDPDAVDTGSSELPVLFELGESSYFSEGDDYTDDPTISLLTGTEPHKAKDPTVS
The experiment in a line: HSF1 potentiators in luciferase reporter cells, confirmation, cell-based, NIH3T3, luminescence, dose retest (AID 435004).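 Note: stress induced by proteasome inhibitor MG132 added 30 min after compound; luciferase reporter driven by HSF1 response element in NIH3T3 cells; actives raise luminescence as potentiators of the MG132 stress response.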 It is filed as functional.

For assay [5], the system named is H4. The assay can be described thus: Luminescence Cell-Based Dose Response HTS to Identify Activators of 5'UTR Stem-Loop Driven Prion Protein mRNA Translation in H4 Neuroglioblastoma Cells. [Related pubchem assays: 1829 (Project Summary), 1814 (Primary HTS)]. Format: functional. Particulars: Homo sapiens.
A short description of assay [6]: Luminescence Cell-Based Dose Response HTS to Identify Activators of Luciferase Translation or Activity in H4 […] Cells. [Related pubchem assays: 1829 (Project Summary), 1814 (Primary HTS)]. Format: functional.
The target in assay [7] is T4, Sentrin-specific protease 6 (Homo sapiens, UniProt Q9GZR1).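 Note: Luminescence-based dose-response confirmatory assay of SENP6 inhibition, following up an ultra-high-throughput screen.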
T4 sequence (Q9GZR1 whole entry): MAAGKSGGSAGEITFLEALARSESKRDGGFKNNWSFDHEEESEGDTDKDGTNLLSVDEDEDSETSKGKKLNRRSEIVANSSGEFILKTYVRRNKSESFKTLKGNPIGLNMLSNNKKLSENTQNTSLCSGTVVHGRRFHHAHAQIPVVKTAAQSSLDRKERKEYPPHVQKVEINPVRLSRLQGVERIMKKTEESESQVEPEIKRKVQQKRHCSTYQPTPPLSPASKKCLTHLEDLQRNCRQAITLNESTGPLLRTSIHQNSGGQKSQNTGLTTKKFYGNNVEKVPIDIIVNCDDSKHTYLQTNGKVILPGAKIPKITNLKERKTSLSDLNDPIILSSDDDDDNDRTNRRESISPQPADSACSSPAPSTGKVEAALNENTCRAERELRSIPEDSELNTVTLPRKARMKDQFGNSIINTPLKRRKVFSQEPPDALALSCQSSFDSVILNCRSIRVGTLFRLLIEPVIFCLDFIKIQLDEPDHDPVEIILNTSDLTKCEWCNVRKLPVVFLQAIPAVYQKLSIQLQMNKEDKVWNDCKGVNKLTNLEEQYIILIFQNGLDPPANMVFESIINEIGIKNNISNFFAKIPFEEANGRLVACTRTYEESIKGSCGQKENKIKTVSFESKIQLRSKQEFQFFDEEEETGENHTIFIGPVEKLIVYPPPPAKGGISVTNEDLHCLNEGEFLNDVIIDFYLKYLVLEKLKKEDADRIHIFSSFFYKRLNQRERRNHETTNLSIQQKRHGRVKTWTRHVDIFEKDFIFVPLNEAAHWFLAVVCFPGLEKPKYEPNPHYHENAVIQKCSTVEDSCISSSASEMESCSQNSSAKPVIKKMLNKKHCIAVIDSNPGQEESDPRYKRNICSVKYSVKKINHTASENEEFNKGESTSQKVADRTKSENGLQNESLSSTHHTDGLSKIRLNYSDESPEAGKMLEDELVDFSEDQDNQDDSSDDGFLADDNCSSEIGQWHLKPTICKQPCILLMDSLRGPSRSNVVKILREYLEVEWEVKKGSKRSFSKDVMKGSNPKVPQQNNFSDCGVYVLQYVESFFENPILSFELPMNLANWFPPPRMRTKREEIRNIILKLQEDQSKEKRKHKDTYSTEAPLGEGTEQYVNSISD
Format: functional.

In assay [8] the target is T5, Sentrin-specific protease 8 (Homo sapiens, UniProt Q96LD8).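 Note: luminescence read-out of SENP8 inhibition, dose-response confirmation following an ultra-high-throughput screen.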
T5 sequence (Q96LD8 whole entry): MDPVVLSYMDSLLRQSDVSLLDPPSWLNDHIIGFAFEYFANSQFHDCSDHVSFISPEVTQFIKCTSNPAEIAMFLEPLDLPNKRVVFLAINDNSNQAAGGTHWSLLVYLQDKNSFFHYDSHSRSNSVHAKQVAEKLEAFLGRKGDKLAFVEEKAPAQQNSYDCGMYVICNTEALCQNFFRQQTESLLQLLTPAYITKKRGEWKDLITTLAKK
It is filed as functional.

Assay [9] deals with T6, Caspase-3 (Homo sapiens, UniProt P42574).
T6 sequence (P42574 whole entry): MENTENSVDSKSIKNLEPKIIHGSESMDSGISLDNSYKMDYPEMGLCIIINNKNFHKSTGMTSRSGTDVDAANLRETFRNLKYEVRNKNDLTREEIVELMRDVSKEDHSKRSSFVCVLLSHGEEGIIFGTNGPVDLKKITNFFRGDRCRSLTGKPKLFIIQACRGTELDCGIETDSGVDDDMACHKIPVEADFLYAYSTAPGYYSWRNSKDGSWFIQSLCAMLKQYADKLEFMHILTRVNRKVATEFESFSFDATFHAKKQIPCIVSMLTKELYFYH
It is filed as functional.

Assay [10] is described as follows: cells. To be noted: HEK293.
The target of assay [11] is T7, Sentrin-specific protease 7 (Homo sapiens, UniProt Q9BQF6).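 Note: Luminescence-based dose-response confirmation of ultra-high-throughput screening hits, measuring inhibition of SENP7.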
T7 sequence (Q9BQF6 whole entry): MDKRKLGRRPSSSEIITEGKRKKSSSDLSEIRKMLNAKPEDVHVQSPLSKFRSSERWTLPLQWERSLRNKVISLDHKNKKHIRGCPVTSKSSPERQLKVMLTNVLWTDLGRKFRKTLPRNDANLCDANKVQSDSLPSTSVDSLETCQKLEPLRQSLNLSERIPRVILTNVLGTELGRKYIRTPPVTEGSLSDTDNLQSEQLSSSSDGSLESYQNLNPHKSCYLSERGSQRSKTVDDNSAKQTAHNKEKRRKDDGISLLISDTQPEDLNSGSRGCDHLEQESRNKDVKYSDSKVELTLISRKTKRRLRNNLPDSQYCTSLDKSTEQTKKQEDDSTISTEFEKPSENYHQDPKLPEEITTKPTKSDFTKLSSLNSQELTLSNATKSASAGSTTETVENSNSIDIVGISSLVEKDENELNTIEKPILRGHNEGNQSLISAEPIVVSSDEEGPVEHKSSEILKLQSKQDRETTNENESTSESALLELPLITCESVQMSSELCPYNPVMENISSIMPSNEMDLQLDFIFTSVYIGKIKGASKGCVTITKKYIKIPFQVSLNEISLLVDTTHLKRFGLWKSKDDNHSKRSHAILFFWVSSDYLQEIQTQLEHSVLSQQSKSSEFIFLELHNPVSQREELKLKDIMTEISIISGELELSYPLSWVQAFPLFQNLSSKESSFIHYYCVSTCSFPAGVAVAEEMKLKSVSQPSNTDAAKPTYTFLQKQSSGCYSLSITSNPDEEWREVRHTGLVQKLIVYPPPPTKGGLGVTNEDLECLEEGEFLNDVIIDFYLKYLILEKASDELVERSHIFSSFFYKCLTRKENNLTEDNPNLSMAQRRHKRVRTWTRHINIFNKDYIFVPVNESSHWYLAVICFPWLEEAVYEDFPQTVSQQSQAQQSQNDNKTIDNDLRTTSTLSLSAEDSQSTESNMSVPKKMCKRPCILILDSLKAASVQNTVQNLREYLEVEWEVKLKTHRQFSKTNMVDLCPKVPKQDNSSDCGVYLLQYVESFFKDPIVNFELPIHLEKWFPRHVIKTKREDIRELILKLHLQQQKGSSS
Format: functional.

Usually AC50 stands for the concentration at which the activity in the assay is half-maximal. For `O=C(Nc1ccc2c(c1)OCCO2)c1ccc(NC(=O)C2CCCO2)cc1` (configuration not stated), the AC50 in [1] was > 52 µM (inactive).
One may read the EC50 as the concentration giving half of the maximal effect. For orientation: IC50 means the concentration at which inhibition is half-maximal. Regarding `O=C(Nc1ccn(Cc2ccccc2)n1)c1n[nH]c([N+](=O)[O-])c1Cl`, the results for the EC50 in assay [2] and in assay [4] were > 67.5 µM (inactive) and > 260 µM (inconclusive), respectively. The IC50 in [3] is 4.37 µM (active).
For the molecule `Cn1c(NC(=O)CCc2ccccc2)cc(=O)n(C)c1=O`, the EC50 was > 67.5 µM (inactive) in [2], 9.93 µM (active) in assay [5] and 4.41 µM (inconclusive) in assay [6].
With `CC(=O)c1sc(N/N=C\c2ccc(N(C)C)cc2)nc1C`, the IC50 in assay [7] is 3.82 µM (active); in assay [8], 4.08 µM (active); in [9], 9.56 µM (active); in assay [11], 3.05 µM (active). In [10], the AC50 is > 52 µM (inactive).
